Laboratory results as given in patent US20190010167A1, “INHIBITORS OF THE MENIN-MLL INTERACTION” (Vitae Pharmaceuticals, Inc., priority 2015, published 2019).

Key:
[1] = target: T1, wild-type menin / MLL-AF9 fusion protein (Homo sapiens, UniProt O00255); test: AlphaLISA menin/MLL binding assay, wild-type menin (Assay 1); settings: biotinylated wild-type menin 5 nM, MLL-AF9-FLAG lysate
T1 construct: made in house; host or cells: E. coli (menin); HEK293 cleared lysate (MLL-AF9-FLAG)
T1 sequence (O00255 1-610): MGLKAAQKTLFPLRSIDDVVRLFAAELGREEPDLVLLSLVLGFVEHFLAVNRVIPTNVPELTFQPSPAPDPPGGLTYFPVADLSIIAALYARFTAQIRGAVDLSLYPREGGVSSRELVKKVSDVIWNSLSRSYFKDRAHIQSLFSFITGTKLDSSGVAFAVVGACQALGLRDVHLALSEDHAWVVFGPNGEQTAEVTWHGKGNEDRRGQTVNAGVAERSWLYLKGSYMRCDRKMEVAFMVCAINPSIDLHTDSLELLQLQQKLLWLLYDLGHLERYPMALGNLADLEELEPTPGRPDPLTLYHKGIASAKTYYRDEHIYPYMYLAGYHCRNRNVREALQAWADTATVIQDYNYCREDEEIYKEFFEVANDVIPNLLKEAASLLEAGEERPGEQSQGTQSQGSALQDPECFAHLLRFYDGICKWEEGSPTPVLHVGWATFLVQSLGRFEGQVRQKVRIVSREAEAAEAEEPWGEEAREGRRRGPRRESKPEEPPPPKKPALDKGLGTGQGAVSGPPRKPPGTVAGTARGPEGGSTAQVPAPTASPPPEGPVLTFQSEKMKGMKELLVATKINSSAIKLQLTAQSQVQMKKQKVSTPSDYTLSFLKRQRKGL
Summary of the method: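 Biotinylated wild-type or mutated menin (5 nM, E. coli-expressed) was preincubated 30 min at RT with compound and HEK293 lysate containing MLL1-1,396–AF9 1-92–FLAG. Buffer was 50 mM Tris-HCl pH 7.4, 5% DMSO, 50 mM NaCl, 0.01% BSA, 1 mM DTT. Anti-FLAG acceptor and streptavidin donor beads (10 μg/mL each) were then added for 60 min. IC50 came from a four-parameter fit of the Alpha signal inhibition.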

[2] = target: T2, menin/MLL (Gal4-Menin and MLL1-46-VP16) in HEK293 cells (Homo sapiens, UniProt O00255); test: Mammalian cellular two-hybrid assay in HEK293 cells (Assay 2, cell assay); format: cell-based; settings: Gal4-Menin/MLL1-46-VP16 two-hybrid, NanoLuc luciferase reporter, 16-18 h
T2 construct: expressed in transfected cells; host or cells: HEK293 (ATCC)
Protocol: Potencies of inhibitor compounds against menin/MLL were tested in a mammalian cellular two-hybrid assay system. HEK293 cells (American Type Culture Collection (ATCC); Manassas, Va.) were co-transfected with three plasmids: one encoding Gal4-Menin (200 ng per 10^6 cells), another encoding MLL1-46-VP16 (100 ng per 10^6 cells), and a reporter plasmid pNL3.3-4×UAS (500 ng per 10^6 cells) encoding secreted NanoLuc® luciferase (Promega) with the upstream 4×UAS repeats for Gal4 binding. Transfection was performed in Opti-MEM® media using Lipofectamine® LTX with Plus™ Reagent (ThermoFisher Scientific) according to manufacturer's protocol. Cells were incubated with transfection reagents at 37° C. 5% CO2 for 5-6 h, harvested by trypsinization and centrifugation at 300×g for 5 min and resuspended in Gibco® DMEM media (phenol red-free, no antibiotics) containing 10% delipidated fetal bovine serum (FBS) (ThermoFisher Scientific). Concentration of cells in the media was adjusted to 3.5×10^5 cells/ml, and 100 μl of the cell suspension was dispensed into each well of 96-well Costar™ black clear bottom cell culture plates (Fisher Scientific). Tested compounds were added as 100 μL of 2× solutions in the media. Final concentration of DMSO was 0.1% in all wells. The cells were incubated with tested compounds at 37° C. 5% CO2 for 16-18 h. At the end of the incubation, 40 μL of the conditioned media from each well was transferred into each well of 96-well Costar™ black half-area plates (Fisher Scientific), to which 40 μl of 2× reconstituted NanoGlo® luciferase assay reagent (Promega) was added and thoroughly mixed on a microshaker for 2-3 min. Remaining media in the culture plates was removed by emptying the wells and blotting the plates on filter paper. The cells were lysed with 1× CellTiter-Glo® Luminescent Cell Viability Assay reagent (Promega) for assessing toxicity of the tested compounds. Both, Nano-Glo® and CellTiter-Glo® luminescence intensities were measured on EnVision® multilabel plate reader (PerkinElmer). Percent inhibition values were calculated based on Nano-Glo® luciferase activity observed with the tested compounds vs. DMSO control and commercially available menin inhibitor MI-2-2 (4-(4-(5,5-Dimethyl-4,5-dihydrothiazol-2-yl)piperazin-1-yl)-6-(2,2,2-trifluoroethyl)thieno[2,3-d]pyrimidine) (EMD Millipore, Cat. No. 444825) incubated with cells at 5 μM. These percent inhibition values were regressed against compound concentrations in the assay using non-linear 4-parameter logit curve fitting (XLFit, IDBS). Half maximal inhibitory concentrations (IC50) were calculated as the parameters of the fit corresponding to the inflection points on semi-logarithmic dose-response curves.

T2 sequence (P04386 1-147 partner limits assumed, species assumed, one chain of several): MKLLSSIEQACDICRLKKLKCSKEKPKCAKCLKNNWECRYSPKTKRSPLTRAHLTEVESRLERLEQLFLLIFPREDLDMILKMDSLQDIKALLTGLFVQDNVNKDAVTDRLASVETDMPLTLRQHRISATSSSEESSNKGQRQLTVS

IC50 [1] [µM]	IC50 [2] [µM]	SMILES
< 0.1	0.1 to 1	CC(=O)Nc1ccc(CN2CCC3(CCN(c4ncnc5sc(CC(F)(F)F)cc45)C3)C2)c(C)c1 (stereo not shown) [Example 42, N-(3-methyl-4-((7-(6-(2,2,2-trifluoroethyl)thieno[2,3-d]pyrimidin-4-yl)-2,7-diazaspiro[4.4]nonan-2-yl)methyl)phenyl)acetamide]
< 0.1	0.1 to 1	FC(F)(F)Cc1cc2c(N3CCC4(CCN(Cc5ccccc5)C4)C3)ncnc2s1 (stereo not shown) [Example 43, 4-(7-benzyl-2,7-diazaspiro[4.4]nonan-2-yl)-6-(2,2,2-trifluoroethyl)thieno[2,3-d]pyrimidine]
< 0.1	0.1 to 1	CC(=O)Nc1ccc(CN2CCC3(CCN(c4ncnc5sc(CC(F)(F)F)cc45)C3)C2)c(Cl)c1 (stereo not shown) [Example 44, N-(3-chloro-4-((7-(6-(2,2,2-trifluoroethyl)thieno[2,3-d]pyrimidin-4-yl)-2,7-diazaspiro[4.4]nonan-2-yl)methyl)phenyl)acetamide]
< 0.1	0.1 to 1	CC(=O)Nc1ccc(CN2CCC3(CCN(c4ncnc5sc(CC(F)(F)F)cc45)C3)C2)c(F)c1 (stereo not shown) [Example 45, N-(3-fluoro-4-((7-(6-(2,2,2-trifluoroethyl)thieno[2,3-d]pyrimidin-4-yl)-2,7-diazaspiro[4.4]nonan-2-yl)methyl)phenyl)acetamide]
< 0.1	0.1 to 1	COC(=O)N[C@H]1CC[C@H](CN2CCC3(CCN(c4ncnc5sc(CC(F)(F)F)cc45)C3)C2)CC1 (stereo partly shown) [Example 46, Methyl ((1r,4r)-4-((7-(6-(2,2,2-trifluoroethyl)thieno[2,3-d]pyrimidin-4-yl)-2,7-diazaspiro[4.4]nonan-2-yl)methyl)cyclohexyl)carbamate]
< 0.1	0.1 to 1	CS(=O)(=O)N[C@H]1CC[C@H](CN2CCC3(CCN(c4ncnc5sc(CC(F)(F)F)cc45)C3)C2)CC1 (stereo partly shown) [Example 48, N-((1r,4r)-4-((7-(6-(2,2,2-trifluoroethyl)thieno[2,3-d]pyrimidin-4-yl)-2,7-diazaspiro[4.4]nonan-2-yl)methyl)cyclohexyl)methanesulfonamide]
< 0.1	0.1 to 1	CS(=O)(=O)N[C@H]1CC[C@@H](CN2CCC3(CCN(c4ncnc5sc(CC(F)(F)F)cc45)C3)C2)CC1 (stereo partly shown) [Example 49, N-((1s,4s)-4-((7-(6-(2,2,2-trifluoroethyl)thieno[2,3-d]pyrimidin-4-yl)-2,7-diazaspiro[4.4]nonan-2-yl)methyl)cyclohexyl)methanesulfonamide]
< 0.1	0.1 to 1	CC(=O)Nc1cccc(CN2CCC3(CCN(c4ncnc5sc(CC(F)(F)F)cc45)C3)C2)c1 (stereo not shown) [Example 52, N-(3-((7-(6-(2,2,2-trifluoroethyl)thieno[2,3-d]pyrimidin-4-yl)-2,7-diazaspiro[4.4]nonan-2-yl)methyl)phenyl)acetamide]
< 0.1	0.1 to 1	Cc1cc(NS(C)(=O)=O)ccc1CN1CCC2(CCN(c3ncnc4sc(CC(F)(F)F)cc34)C2)C1 (stereo not shown) [Example 54, N-(3-methyl-4-((7-(6-(2,2,2-trifluoroethyl)thieno[2,3-d]pyrimidin-4-yl)-2,7-diazaspiro[4.4]nonan-2-yl)methyl)phenyl)methanesulfonamide]
0.1 to 1	0.1 to 1	CC(C)(N)C(=O)N1CCC2(CCN(c3ncnc4sc(CC(F)(F)F)cc34)C2)C1 (stereo not shown) [Example 58, 2-Amino-2-methyl-1-(7-(6-(2,2,2-trifluoroethyl)thieno[2,3-d]pyrimidin-4-yl)-2,7-diazaspiro[4.4]nonan-2-yl)propan-1-one]
0.1 to 1	≥ 1	CS(=O)(=O)Cc1ccc(CC(=O)N2CC3(C2)CN(c2ncnc4sc(CC(F)(F)F)cc24)C3)cc1 [Example 61, 2-(4-((methylsulfonyl)methyl)phenyl)-1-(6-(6-(2,2,2-trifluoroethyl)thieno[2,3-d]pyrimidin-4-yl)-2,6-diazaspiro[3.3]heptan-2-yl)ethan-1-one]
